Data from patent US20210137948A1, “TREATMENT OF INFECTIONS CAUSED BY NEISSERIA GONOCOCCUS USING A HALOGENATED SALICYLANILIDE” (priority 2018, published 2021).
Like-named read-outs stand apart in the source and are kept apart here.

Legend:
[1] = tested on: Neisseria gonorrhoeae CDC panel consisting of 48 isolates; assay: Agar dilution MIC, CDC panel of 48 isolates (Example 2); format: cell-based; conditions: for MIC: Neisseria gonorrhoeae, read-out: Minimal inhibitory concentration
Experimental: Neisseria gonorrhoeae (Neisseria gonocossus) were tested for antimicrobial susceptibility using agar dilution as described by the Clinical and Laboratory Standards Institute (CLSI), see reference (4).
The concentrations tested for each compound encompass the reported interpretive breakpoints and consist of 8 or more doubling dilutions, ensuring that there is one dilution below the lowest value of QC.
GC agar base +1% defined growth supplement.
Initial screening strains: Neisseria gonorrhoeae CDC panel consisting of 48 isolates. The strains were provided by Clinical and Environmental Microbiology Branch, Division of Healthcare Quality Promotion, CDC (Atlanta, US).
Dilution scheme for reference method: Prepare intermediate 100× antimicrobial agent solutions by making successive serial twofold dilutions. Then, add one part of the 100× antimicrobial solution to […] of molten agar. Plates containing no antimicrobial agent solutions are made for use as growth controls. It is important that no longer than one hour elapses between the time that the stock solution is thawed, the dilutions are prepared and added to the base medium and the plates are poured, see reference (5).
• Add appropriate dilutions of antimicrobial solution to molten test agars that have been allowed to equilibrate in a water bath to 50° C. • Mix the agar and antimicrobial solution thoroughly and pour (20 mL) into Petri dishes on a level surface. Pour quickly after mixing to prevent cooling and partial solidification in the mixing container. Avoid generating bubbles when mixing. • Allow the agar to solidify at room temperature and store them in sealed plastic bags at 2 to 8° C. for up to five days. Preferably use with 24 hours. • Allow plates stored at 2 to 8° C. to equilibrate to room temperature before use. Make certain that the agar surface is dry before inoculating the plates. If necessary, place the plates in an incubator or laminar flow hood for approximately 30 minutes with their lids ajar to hasten drying of the agar surface.
Inoculum preparation: Prepare a standardized inoculum for the agar dilution method by suspending isolated colonies of Neisseria gonorrhoeae selected from an 18-24 hour-old chocolate agar plate directly in Mueller Hinton Broth (MHB) to achieve the density equivalent to a 0.5 McFarland standard and adjusted to obtain a cell density of ˜1-2×10^8 CFU/mL. For N. gonorrhoeae, the McFarland solutions are made at a reading of ˜0.80 in densitometer (Grant Instruments DEN-1B Densitometer) because these values have been evaluated and correspond to the desired CFU/mL count.
Dilution of inoculum suspension: Cultures adjusted to the 0.5 McFarland standard contain approximately 1 to 2×10^8 CFU/mL with most species, and the final inoculum required is 10^4 CFU per spot. When using replicators with 3-mm pins that deliver ˜2.5 μL, dilute the 0.5 McFarland suspension 1:10 in sterile MHB to obtain a concentration of 10^7 CFU/mL. The final inoculum on the agar will be approximately 10^4 CFU per spot. Use the adjusted suspensions for final inoculation within 60 minutes of preparation, see reference (5).
The following procedure was followed: • Arrange the tubes containing the adjusted and diluted bacterial suspensions (10^7 CFU/mL) in order in a rack. Place an aliquot of each well-mixed suspension into the corresponding well in the replicator inoculum block (if being used). • Mark the agar plates for orientation of the inoculum spots. • Apply an aliquot of each inoculum (2.5 μL) to the agar surface, either with an inocula-replicating device or pipette, to obtain a final concentration of ˜10^4 CFU/spot. • Inoculate a growth-control plate (no antimicrobial agent) first and then, starting with the lowest concentration, inoculate the plates containing the different antimicrobial concentrations. […]

[2] = tested on: rabbits; conditions: p.o.; cited from earlier work
[3] = via the urinary tract or by enzymatic metabolism in the liver; cited from earlier work
[4] = tested on: rats; conditions: cited from earlier work
[5] = tested on: mice; conditions: p.o.; cited from earlier work

## O=C(Nc1ccc([N+](=O)[O-])cc1Cl)c1cc(Cl)ccc1O [Niclosamide, 2′,5-dichloro-4′-nitrosalicylanilide]
[1]; Neisseria gonorrhoeae strain CDC # 165
  MIC: ≤ 0.25 µg/mL
[1]; Neisseria gonorrhoeae strain CDC # 166
  MIC: ≤ 0.25 µg/mL
[1]; Neisseria gonorrhoeae strain CDC # 167
  MIC: ≤ 0.25 µg/mL
[1]; Neisseria gonorrhoeae strain CDC # 169
  MIC: ≤ 0.25 µg/mL
[1]; Neisseria gonorrhoeae strain CDC # 170
  MIC: ≤ 0.25 µg/mL
[1]; Neisseria gonorrhoeae strain CDC # 171
  MIC: ≤ 0.25 µg/mL
[1]; Neisseria gonorrhoeae strain CDC # 172
  MIC: ≤ 0.25 µg/mL
[1]; Neisseria gonorrhoeae strain CDC # 173
  MIC: ≤ 0.25 µg/mL
[1]; Neisseria gonorrhoeae strain CDC # 174
  MIC: ≤ 0.25 µg/mL
[1]; Neisseria gonorrhoeae strain CDC # 175
  MIC: ≤ 0.25 µg/mL
[1]; Neisseria gonorrhoeae strain CDC # 176
  MIC: ≤ 0.25 µg/mL
[1]; Neisseria gonorrhoeae strain CDC # 177
  MIC: ≤ 0.25 µg/mL
[1]; Neisseria gonorrhoeae strain CDC # 178
  MIC: ≤ 0.25 µg/mL
[1]; Neisseria gonorrhoeae strain CDC # 179
  MIC: ≤ 0.25 µg/mL
[1]; Neisseria gonorrhoeae strain CDC # 180
  MIC: ≤ 0.25 µg/mL
[1]; Neisseria gonorrhoeae strain CDC # 181
  MIC: ≤ 0.25 µg/mL
[1]; Neisseria gonorrhoeae strain CDC # 182
  MIC: ≤ 0.25 µg/mL
[1]; Neisseria gonorrhoeae strain CDC # 183
  MIC: ≤ 0.25 µg/mL
[1]; Neisseria gonorrhoeae strain CDC # 184
  MIC: ≤ 0.25 µg/mL
[1]; Neisseria gonorrhoeae strain CDC # 185
  MIC: ≤ 0.25 µg/mL
[1]; Neisseria gonorrhoeae strain CDC # 186
  MIC: ≤ 0.25 µg/mL
[1]; Neisseria gonorrhoeae strain CDC # 187
  MIC: ≤ 0.25 µg/mL
[1]; Neisseria gonorrhoeae strain CDC # 188
  MIC: ≤ 0.25 µg/mL
[1]; Neisseria gonorrhoeae strain CDC # 189
  MIC: ≤ 0.25 µg/mL
[1]; Neisseria gonorrhoeae strain CDC # 190
  MIC: ≤ 0.25 µg/mL
[1]; Neisseria gonorrhoeae strain CDC # 191
  MIC: ≤ 0.25 µg/mL
[1]; Neisseria gonorrhoeae strain CDC # 192
  MIC: ≤ 0.25 µg/mL
[1]; Neisseria gonorrhoeae strain CDC # 193
  MIC: ≤ 0.25 µg/mL
[1]; Neisseria gonorrhoeae strain CDC # 194
  MIC: ≤ 0.25 µg/mL
[1]; Neisseria gonorrhoeae strain CDC # 195
  MIC: ≤ 0.25 µg/mL
[1]; Neisseria gonorrhoeae strain CDC # 196
  MIC: ≤ 0.25 µg/mL
[1]; Neisseria gonorrhoeae strain CDC # 198
  MIC: ≤ 0.25 µg/mL
[1]; Neisseria gonorrhoeae strain CDC # 199
  MIC: ≤ 0.25 µg/mL
[1]; Neisseria gonorrhoeae strain CDC # 200
  MIC: ≤ 0.25 µg/mL
[1]; Neisseria gonorrhoeae strain CDC # 201
  MIC: ≤ 0.25 µg/mL
[1]; Neisseria gonorrhoeae strain CDC # 202
  MIC: ≤ 0.25 µg/mL
[1]; Neisseria gonorrhoeae strain CDC # 203
  MIC: ≤ 0.25 µg/mL
[1]; Neisseria gonorrhoeae strain CDC # 204
  MIC: ≤ 0.25 µg/mL
[1]; Neisseria gonorrhoeae strain CDC # 205
  MIC: ≤ 0.25 µg/mL
[1]; Neisseria gonorrhoeae strain CDC # 206
  MIC: ≤ 0.25 µg/mL
[1]; Neisseria gonorrhoeae strain CDC # 207
  MIC: ≤ 0.25 µg/mL
[1]; Neisseria gonorrhoeae strain CDC # 208
  MIC: ≤ 0.25 µg/mL
[1]; Neisseria gonorrhoeae strain CDC # 209
  MIC: ≤ 0.25 µg/mL
[1]; Neisseria gonorrhoeae strain CDC # 210
  MIC: ≤ 0.25 µg/mL
[1]; Neisseria gonorrhoeae strain CDC # 211
  MIC: ≤ 0.25 µg/mL
[1]; Neisseria gonorrhoeae strain CDC # 212
  MIC: ≤ 0.25 µg/mL
[1]; Neisseria gonorrhoeae strain CDC # 213
  MIC: ≤ 0.25 µg/mL
[1]; Neisseria gonorrhoeae strain CDC # 214
  MIC: ≤ 0.25 µg/mL
[1]; against N. gonococcus (N. gonorrhoeae), Example 2 conclusion
  in vitro activity (in words): Good in vitro activity
[2]
  LD50: 5000 mg/kg
[3]
  clearance from the bloodstream: quickly cleared
[4]; dermal
  LD50: 2000 mg/kg
[4]; p.o.
  LD50: 5000 mg/kg
[5]
  LD50: > 5000 mg/kg
